Assay results from patent US20140288052A1, “SUBSTITUTED BICYCLIC AZA-HETEROCYCLES AND ANALOGUES AS SIRTUIN MODULATORS” (GlaxoSmithKline, LLC, priority 2011, published 2014).

Experiments:
[1] = target: T1, SIRT1 (Homo sapiens, UniProt Q96EB6); test: TAMRA based mass spectrometry assay of SIRT1 deacetylase activation; type: biochemical; settings: TAMRA peptide substrate; for TAMRA EC1.5 (μM): concentration that results in 150% activation of SIRT1; for TAMRA % Fold Act: percent maximum fold activation relative to control (100%)
T1 sequence (Q96EB6 1-747): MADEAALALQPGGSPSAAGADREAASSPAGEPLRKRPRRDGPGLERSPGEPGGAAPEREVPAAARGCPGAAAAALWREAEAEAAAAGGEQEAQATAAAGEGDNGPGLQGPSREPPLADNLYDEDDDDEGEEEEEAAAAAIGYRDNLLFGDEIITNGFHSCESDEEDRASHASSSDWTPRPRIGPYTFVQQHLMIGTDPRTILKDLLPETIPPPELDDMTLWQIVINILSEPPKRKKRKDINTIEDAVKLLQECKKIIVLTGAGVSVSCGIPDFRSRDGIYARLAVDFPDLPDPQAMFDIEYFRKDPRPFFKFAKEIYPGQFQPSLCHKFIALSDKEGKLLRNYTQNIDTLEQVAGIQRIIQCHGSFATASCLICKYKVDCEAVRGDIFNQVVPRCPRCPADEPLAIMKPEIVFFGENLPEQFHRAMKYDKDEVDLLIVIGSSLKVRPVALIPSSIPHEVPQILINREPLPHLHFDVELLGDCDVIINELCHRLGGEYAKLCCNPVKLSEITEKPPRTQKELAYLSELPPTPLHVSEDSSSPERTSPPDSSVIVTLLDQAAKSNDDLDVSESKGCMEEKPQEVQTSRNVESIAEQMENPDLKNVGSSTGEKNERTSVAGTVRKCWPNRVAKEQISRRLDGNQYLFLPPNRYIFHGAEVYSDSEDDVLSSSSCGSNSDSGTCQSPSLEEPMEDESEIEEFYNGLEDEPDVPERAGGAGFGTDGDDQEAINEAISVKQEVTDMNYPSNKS
Source text: (§1) Mass spectrometry based assays were used to identify modulators of SIRT1 activity. The TAMRA based assay utilized a peptide having 20 amino acid residues as follows: Ac-EE-K(biotin)-GQSTSSHSK(Ac)NleSTEG-K(5TMR)-EE-NH2 (SEQ ID NO: 1), wherein K(Ac) is an acetylated lysine residue and Nle is a norleucine. The peptide was labeled with the fluorophore 5TMR (excitation 540 nm/emission 580 nm) at the C-terminus. The sequence of the peptide substrate was based on p53 with several modifications. In addition, the methionine residue naturally present in the sequence was replaced with the norleucine because the methionine may be susceptible to oxidation during synthesis and purification. The Trp based assay utilized a peptide having an amino acid residues as follows: Ac-R-H-K-K(Ac)-W-NH2 (SEQ ID NO: 2).
The TAMRA based mass spectrometry assay was conducted as follows: 0.5 μM peptide substrate and 120 μM βNAD^+ was incubated with 10 nM SIRT1 for 25 minutes at 25° C. in a reaction buffer (50 mM Tris-acetate pH 8, 137 mM NaCl, 2.7 mM KCl, 1 mM MgCl2, 5 mM DTT, 0.05% BSA). The SIRT1 protein was obtained by cloning the SirT1 gene into a T7-promoter containing vector, which was then transformed and expressed in BL21(DE3) bacterial cells. Test compound was added at varying concentrations to this reaction mixture and the resulting reactions were monitored. After the 25 minute incubation with SIRT1, 10 μL of 10% formic acid was added to stop the reaction. The resulting reactions were sealed and frozen for later mass spec analysis. Determination of the amount of deacetylated substrate peptide formed (or, alternatively, the amount of O-acetyl-ADP-ribose (OAADPR) generated) by the sirtuin-mediated NAD-dependent deacetylation reaction allowed for the precise measurement of relative SIRT1 activity in the presence of varying concentrations of the test compound versus control reactions lacking the test compound.
(§2) A control for inhibition of sirtuin activity was conducted by adding 1 μL of 500 mM nicotinamide as a negative control at the start of the reaction (e.g., permits determination of maximum sirtuin inhibition). A control for activation of sirtuin activity was conducted using 10 nM of sirtuin protein, with 1 μL of DMSO in place of compound, to determine the amount of deacetylation of the substrate at a given time point within the linear range of the assay. This time point was the same as that used for test compounds and, within the linear range, the endpoint represents a change in velocity. For the above assay, SIRT1 protein was expressed and purified as follows. The SirT1 gene was cloned into a T7-promoter containing vector and transformed into BL21(DE3). The protein was expressed by induction with 1 mM IPTG as an N-terminal His-tag fusion protein at 18° C. overnight and harvested at 30,000×g. Cells were lysed with lysozyme in lysis buffer (50 mM Tris-HCl, 2 mM Tris[2-carboxyethyl] phosphine (TCEP), 10 μM ZnCl2, 200 mM NaCl) and further treated with sonication for 10 min for complete lysis. The protein was purified over a Ni-NTA column (Amersham) and fractions containing pure protein were pooled, concentrated and run over a sizing column (Sephadex S200 26/60 global). The peak containing soluble protein was collected and run on an Ion-exchange column (MonoQ). Gradient elution (200 mM-500 mM NaCl) yielded pure protein. This protein was concentrated and dialyzed against dialysis buffer (20 mM Tris-HCl, 2 mM TCEP) overnight. The protein was aliquoted and frozen at −80° C. until further use.
Sirtuin-modulating compounds of Formula (I) that activated SIRT1 were identified using the assay described above and are shown below in Table 1. The EC1.5 values represent the concentration of test compounds that result in 150% activation of SIRT1. The EC1.5 values for the activating compounds of Formula (I) are represented by A (EC1.5<1 μM), B (EC1.5 1−25 μM), C (EC1.5>25 μM). […]

[2] = target: T1, SIRT1; test: Trp mass spectrometry assay of SIRT1 deacetylase activation; type: biochemical; settings: Trp peptide substrate; for TRP EC1.5 (μM): concentration that results in 150% activation of SIRT1; for TRP % Fold Act: percent maximum fold activation relative to control (100%)
Source text: as §1
The Trp mass spectrometry assay was conducted as follows. 0.5 μM peptide substrate and 120 μM βNAD^+ were incubated with 10 nM SIRT1 for 25 minutes at 25° C. in a reaction buffer (50 mM HEPES pH 7.5, […], 1 mM DTT, 0.05% BSA). The SIRT1 protein was obtained by cloning the SirT1 gene into a T7-promoter containing vector, which was then expressed in BL21(DE3) bacterial cells and purified as described in further detail below. Test compound was added at varying concentrations to this reaction mixture and the resulting reactions were monitored. After the 25 minute incubation with SIRT1, 10 μL of 10% formic acid was added to stop the reaction. The resulting reactions were sealed and frozen for later mass spec analysis. The relative SIRT1 activity was then determined by measuring the amount of O-acetyl-ADP-ribose (OAADPR) formed (or, alternatively, the amount of deacetylated Trp peptide generated) by the NAD-dependent sirtuin deacetylation reaction in the presence of varying concentrations of the test compound versus control reactions lacking the test compound. The degree to which the test agent activated deacetylation by SIRT1 was expressed as EC1.5 (i.e., the concentration of compound required to increase SIRT1 activity by 50% over the control lacking test compound), and Percent Maximum Activation (i.e., the maximum activity relative to control (100%) obtained for the test compound).
as §2
Sirtuin-modulating compounds of Formula (I) that activated SIRT1 were identified using the assay described above and are shown below in Table 1. […]

Row | Compound | TAMRA EC1.5 (μM) [1] | TAMRA % Fold Act [1] | TRP EC1.5 (μM) [2] | TRP % Fold Act [2]
1 | O=C(Nc1ccnc2cc(-c3ccccc3C(F)(F)F)nn12)c1ccncn1 [Compound 62] | B (EC1.5 1−25 μM) | B (Fold Activation<350%) | C (EC1.5>25 μM) | B (Fold Activation<350%)
2 | O=C(Nc1ccnc2cc(-c3cccc(C(F)(F)F)c3)nn12)c1cnccn1 [Compound 72] | – | – | C (EC1.5>25 μM) | B (Fold Activation<350%)
3 | Cc1cc(C)nc(C(=O)Nc2ccnc3cc(-c4ccccc4C(F)(F)F)nn23)c1 [Compound 106] | A (EC1.5<1 μM) | A (Fold activation≧350%) | C (EC1.5>25 μM) | B (Fold Activation<350%)
4 | Cc1cnc(NC(=O)c2ccnn3cc(-c4cccc(F)c4)nc23)s1 [Compound 5] | C (EC1.5>25 μM) | B (Fold Activation<350%) | C (EC1.5>25 μM) | B (Fold Activation<350%)
5 | O=C(Nc1nccs1)c1ccnn2cc(-c3ccccc3Cl)nc12 [Compound 3] | C (EC1.5>25 μM) | B (Fold Activation<350%) | – | –
6 | O=C(Nc1cccnc1)c1cc(N2CCOCC2)nn2cc(-c3cccc(C(F)(F)F)c3)nc12 [Compound 50] | C (EC1.5>25 μM) | B (Fold Activation<350%) | – | –
7 | Cc1nc(C(=O)Nc2ccnc3cc(-c4cccc(C(F)(F)F)c4)nn23)c(C)s1 [Compound 68] | – | – | C (EC1.5>25 μM) | B (Fold Activation<350%)
8 | Cc1cnc(NC(=O)c2cc(N3CCOCC3)nn3cc(-c4cccc(Cl)c4)nc23)s1 [Compound 31] | C (EC1.5>25 μM) | B (Fold Activation<350%) | – | –
9 | Cc1cnc(NC(=O)c2cc(N3CCOCC3)nn3cc(-c4ccccc4Cl)nc23)s1 [Compound 35] | – | – | C (EC1.5>25 μM) | B (Fold Activation<350%)
10 | Cc1nc(C(=O)Nc2ccnc3cc(-c4cccc(C(F)(F)F)c4)nn23)cs1 [Compound 67] | – | – | C (EC1.5>25 μM) | B (Fold Activation<350%)
11 | O=C(Nc1ccccn1)c1ccnc2cc(-c3cccc(C(F)(F)F)c3)nn12 [Compound 84] | – | – | C (EC1.5>25 μM) | B (Fold Activation<350%)
12 | Cc1cnc(C(=O)Nc2ccnc3cc(-c4cccc(C(F)(F)F)c4)nn23)s1 [Compound 69] | – | – | C (EC1.5>25 μM) | B (Fold Activation<350%)

Results, then the compound that gave them:

Row | TAMRA EC1.5 (μM) [1] | TAMRA % Fold Act [1] | TRP EC1.5 (μM) [2] | TRP % Fold Act [2] | Compound
13 | C (EC1.5>25 μM) | B (Fold Activation<350%) | C (EC1.5>25 μM) | B (Fold Activation<350%) | O=C(Nc1cccnc1)c1cc(N2CCOCC2)nn2cc(-c3ccccc3F)nc12 [Compound 40]
14 | C (EC1.5>25 μM) | B (Fold Activation<350%) | – | – | O=C(Nc1cccc(N2CCOCC2)n1)c1ccnn2cc(-c3cccc(Cl)c3)nc12 [Compound 24]
15 | A (EC1.5<1 μM) | B (Fold Activation<350%) | – | – | O=C(Nc1cccc(N2CCOCC2)n1)c1ccnn2cc(-c3cccc(C(F)(F)F)c3)nc12 [Compound 20]
16 | C (EC1.5>25 μM) | B (Fold Activation<350%) | – | – | O=C(Nc1ccnc(N2CCOCC2)c1)c1ccnn2cc(-c3cccc(C(F)(F)F)c3)nc12 [Compound 19]
17 | C (EC1.5>25 μM) | B (Fold Activation<350%) | – | – | O=C(Nc1cccnc1)c1cc(N2CCOCC2)nn2cc(-c3ccccc3Cl)nc12 [Compound 52]
18 | C (EC1.5>25 μM) | B (Fold Activation<350%) | – | – | O=C(Nc1cccc(N2CCOCC2)n1)c1ccnn2cc(-c3cccc(F)c3)nc12 [Compound 11]
19 | B (EC1.5 1−25 μM) | B (Fold Activation<350%) | – | – | O=C(Nc1ccnc(N2CCOCC2)c1)c1ccnn2cc(-c3ccccc3Cl)nc12 [Compound 9]
20 | C (EC1.5>25 μM) | B (Fold Activation<350%) | – | – | O=C(Nc1ccnc(N2CCOCC2)c1)c1ccnn2cc(-c3ccccc3F)nc12 [Compound 7]
21 | – | – | B (EC1.5 1−25 μM) | B (Fold Activation<350%) | O=C(Nc1nccs1)c1cc(N2CCOCC2)nn2cc(-c3ccccc3Cl)nc12 [Compound 34]
22 | – | – | C (EC1.5>25 μM) | B (Fold Activation<350%) | Cc1cnc(NC(=O)c2cc(N3CCOCC3)nn3cc(-c4ccccc4F)nc23)s1 [Compound 38]
23 | A (EC1.5<1 μM) | A (Fold activation≧350%) | – | – | O=C(Nc1ccnc(N2CCOCC2)c1)c1ccnn2cc(-c3ccccc3C(F)(F)F)nc12 [Compound 15]
24 | C (EC1.5>25 μM) | B (Fold Activation<350%) | – | – | O=C(Nc1ccncc1)c1cc(N2CCOCC2)nn2cc(-c3ccccc3Cl)nc12 [Compound 53]
25 | C (EC1.5>25 μM) | B (Fold Activation<350%) | – | – | O=C(Nc1ccncc1)c1cc(N2CCOCC2)nn2cc(-c3cccc(C(F)(F)F)c3)nc12 [Compound 51]
